d = 2'-deoxy (DNA); r = 2'-OH (RNA); {P} = phosphate
System: mouse BMDMs
Test: VEGFA release in mouse BMDMs (ELISA)
Format: cell-based
Conditions: ELISA
Description: Primary WT or mutant mouse bone marrow derived macrophages (BMDMs) were isolated as previously described (4). BMDMs were cultured in IMDM (Gibco) basal medium containing 10% fetal bovine serum (FBS), 30% L929 supernatants, nonessential amino acids, sodium pyruvate, 2-mercaptoethanol, and antibiotics. THP-1 cells were cultured in RPMI 1640 medium with 10% FBS and antibiotics. Human RPE cells were isolated as previously described and cultured in DMEM medium with 10% FBS and antibiotics. All cells were maintained at 37° C. in a 5% CO2 environment.
The RPE-choroid complex was isolated from mouse eyes on day 3 after laser injury and treatment with FTO inhibitor or vehicle. Eye tissues were lysed by sonication with immunoprecipitation assay (RIPA) buffer (Sigma-Aldrich, R0278, USA) containing protease inhibitor (Sigma-Aldrich, 11836170001, USA), on ice for 15 minutes. The lysate was centrifuged at 20,000×g for 15 minutes at 4° C., and total protein in the lysates was quantified using the Thermo Scientific™ Pierce™ BCA™ Protein Assay (Fisher Scientific, PI23225, USA). VEGFA protein levels in the supernatants were measured by VEGF DuoSet ELISA (R&D Systems, DY493, USA), following the manufacturer's instructions. Mouse BMDMs or human THP-1 cells (5×10^5 cells per well) were plated into six-well plates in complete medium and allowed to adhere overnight. Cells were then incubated for 24 hours in the absence or presence of various doses of FTO inhibitor or METTL3 inhibitors (STM2457, Selleck Chemicals). […] The siRNAs (siFto: 5′-P.G.A.G.G.A.U.C.C.A.A.G.G.C.A.A.A.G.A.U.dT.dT 3′ (SEQ ID NO: 38); siCtrl: 5′-P.U.A.A.G.G.C.U.A.U.G.A.A.G.A.G.A.U.dT.dT 3′; SEQ ID NO: 39), were designed and synthesized by GE Healthcare Dharmacon, were transfected twice with BMDMs by using DharmaFECT 4 Transfection Reagent (Dharmacon, T-2004, USA). VEGFA levels in the supernatants were measured by mouse or human VEGF DuoSet ELISA (R&D Systems, DY493 or DY293B, USA), following the manufacturer's instructions.

STM2457
VEGFA release with METTL3 inhibitor (various doses, 24 hours): dose-dependent increase in VEGFA release

siFto: siFto: 5′-P.G.A.G.G.A.U.C.C.A.A.G.G.C.A.A.A.G.A.U.dT.dT 3′ (SEQ ID NO: 38), Dharmacon (sense GAGGAUCCAAGGCAAAGAUTT; sugars from the 5' end r19 d2, 5' {P}, backbone not given here)
VEGFA release after Fto knockdown (BMDMs transfected with siRNA targeting Fto vs control): significantly dampened macrophage mediated VEGFA release

From patent publication US20260174858A1, “TARGETING THE m6A MRNA DEMETHYLASE FTO” (University of Virginia Patent Foundation, priority 2022, published 2026)
